± gives the expanded uncertainty stated by the source.
Settings: Liquid

CN(CCO)CCO [N-methyldiethanolamine]
mass density (313.09 K, 1007 kPa): 1025.3 ± 0.6 kg/m3
mass density (313.09 K, 1989 kPa): 1025.8 ± 0.6 kg/m3
mass density (313.09 K, 3027 kPa): 1026.4 ± 0.6 kg/m3
mass density (313.09 K, 4003 kPa): 1026.9 ± 0.6 kg/m3
mass density (313.09 K, 5004 kPa): 1027.3 ± 0.6 kg/m3
mass density (313.09 K, 6004 kPa): 1027.8 ± 0.6 kg/m3
mass density (313.09 K, 6996 kPa): 1028.3 ± 0.6 kg/m3
mass density (313.09 K, 8006 kPa): 1028.8 ± 0.6 kg/m3
mass density (313.09 K, 9066 kPa): 1029.4 ± 0.6 kg/m3
mass density (313.09 K, 10021 kPa): 1029.8 ± 0.6 kg/m3
mass density (313.09 K, 11008 kPa): 1030.3 ± 0.6 kg/m3
mass density (313.09 K, 11995 kPa): 1030.8 ± 0.6 kg/m3
mass density (313.09 K, 13024 kPa): 1031.3 ± 0.7 kg/m3
mass density (313.09 K, 13984 kPa): 1031.7 ± 0.7 kg/m3
mass density (313.09 K, 14994 kPa): 1032.2 ± 0.7 kg/m3
mass density (313.09 K, 15992 kPa): 1032.7 ± 0.7 kg/m3
mass density (313.09 K, 16977 kPa): 1033.1 ± 0.7 kg/m3
mass density (313.09 K, 17994 kPa): 1033.6 ± 0.7 kg/m3
mass density (313.09 K, 19000 kPa): 1034 ± 0.7 kg/m3
mass density (313.09 K, 19985 kPa): 1034.5 ± 0.7 kg/m3
mass density (323.01 K, 1003 kPa): 1017.6 ± 0.6 kg/m3
mass density (323.01 K, 2020 kPa): 1018.2 ± 0.6 kg/m3
mass density (323.01 K, 3006 kPa): 1018.7 ± 0.6 kg/m3
mass density (323.01 K, 4031 kPa): 1019.2 ± 0.6 kg/m3
mass density (323.01 K, 5002 kPa): 1019.7 ± 0.6 kg/m3
mass density (323.01 K, 6020 kPa): 1020.2 ± 0.6 kg/m3
mass density (323.01 K, 7003 kPa): 1020.7 ± 0.6 kg/m3
mass density (323.01 K, 8000 kPa): 1021.2 ± 0.6 kg/m3
mass density (323.01 K, 9006 kPa): 1021.7 ± 0.6 kg/m3
mass density (323.01 K, 9991 kPa): 1022.2 ± 0.6 kg/m3
mass density (323.01 K, 11005 kPa): 1022.7 ± 0.6 kg/m3
mass density (323.01 K, 12000 kPa): 1023.2 ± 0.6 kg/m3
mass density (323.01 K, 13010 kPa): 1023.7 ± 0.6 kg/m3
mass density (323.01 K, 14000 kPa): 1024.2 ± 0.6 kg/m3
mass density (323.01 K, 14987 kPa): 1024.7 ± 0.6 kg/m3
mass density (323.01 K, 15987 kPa): 1025.2 ± 0.6 kg/m3
mass density (323.01 K, 17012 kPa): 1025.6 ± 0.6 kg/m3
mass density (323.01 K, 17991 kPa): 1026.1 ± 0.7 kg/m3
mass density (323.01 K, 18995 kPa): 1026.6 ± 0.7 kg/m3
mass density (323.01 K, 20012 kPa): 1027.1 ± 0.7 kg/m3
mass density (332.95 K, 1045 kPa): 1009.9 ± 0.6 kg/m3
mass density (332.95 K, 2032 kPa): 1010.5 ± 0.6 kg/m3
mass density (332.95 K, 2995 kPa): 1011 ± 0.6 kg/m3
mass density (332.95 K, 3991 kPa): 1011.6 ± 0.6 kg/m3
mass density (332.95 K, 4983 kPa): 1012.1 ± 0.6 kg/m3
mass density (332.95 K, 6016 kPa): 1012.6 ± 0.6 kg/m3
mass density (332.95 K, 6998 kPa): 1013.2 ± 0.6 kg/m3
mass density (332.95 K, 8009 kPa): 1013.7 ± 0.6 kg/m3
mass density (332.95 K, 8993 kPa): 1014.2 ± 0.6 kg/m3
mass density (332.95 K, 9991 kPa): 1014.7 ± 0.6 kg/m3
mass density (332.95 K, 10985 kPa): 1015.3 ± 0.6 kg/m3
mass density (332.95 K, 12014 kPa): 1015.8 ± 0.6 kg/m3
mass density (332.95 K, 13079 kPa): 1016.3 ± 0.6 kg/m3
mass density (332.95 K, 13992 kPa): 1016.8 ± 0.6 kg/m3
mass density (332.95 K, 14999 kPa): 1017.3 ± 0.6 kg/m3
mass density (332.95 K, 15997 kPa): 1017.8 ± 0.6 kg/m3
mass density (332.95 K, 16989 kPa): 1018.3 ± 0.6 kg/m3
mass density (332.95 K, 17997 kPa): 1018.8 ± 0.6 kg/m3
mass density (332.95 K, 19011 kPa): 1019.3 ± 0.6 kg/m3
mass density (332.95 K, 19963 kPa): 1019.7 ± 0.6 kg/m3
mass density (342.78 K, 1004 kPa): 1002 ± 0.5 kg/m3
mass density (342.78 K, 1998 kPa): 1002.6 ± 0.5 kg/m3
mass density (342.78 K, 3050 kPa): 1003.2 ± 0.5 kg/m3
mass density (342.78 K, 4015 kPa): 1003.7 ± 0.5 kg/m3
mass density (342.78 K, 4998 kPa): 1004.3 ± 0.5 kg/m3
mass density (342.78 K, 6020 kPa): 1004.9 ± 0.5 kg/m3
mass density (342.78 K, 7011 kPa): 1005.4 ± 0.6 kg/m3
mass density (342.78 K, 8034 kPa): 1006 ± 0.6 kg/m3
mass density (342.78 K, 9001 kPa): 1006.5 ± 0.6 kg/m3
mass density (342.78 K, 10000 kPa): 1007.1 ± 0.6 kg/m3
mass density (342.78 K, 11000 kPa): 1007.6 ± 0.6 kg/m3
mass density (342.78 K, 12012 kPa): 1008.2 ± 0.6 kg/m3
mass density (342.78 K, 12947 kPa): 1008.7 ± 0.6 kg/m3
mass density (342.78 K, 13991 kPa): 1009.2 ± 0.6 kg/m3
mass density (342.78 K, 15001 kPa): 1009.8 ± 0.6 kg/m3
mass density (342.78 K, 15987 kPa): 1010.3 ± 0.6 kg/m3
mass density (342.78 K, 16998 kPa): 1010.8 ± 0.6 kg/m3
mass density (342.78 K, 18005 kPa): 1011.3 ± 0.6 kg/m3
mass density (342.78 K, 18981 kPa): 1011.9 ± 0.6 kg/m3
mass density (342.78 K, 19980 kPa): 1012.4 ± 0.6 kg/m3
mass density (352.68 K, 1013 kPa): 994.4 ± 0.5 kg/m3
mass density (352.68 K, 2013 kPa): 995 ± 0.5 kg/m3
mass density (352.68 K, 3004 kPa): 995.6 ± 0.5 kg/m3
mass density (352.68 K, 3999 kPa): 996.1 ± 0.5 kg/m3
mass density (352.68 K, 5003 kPa): 996.8 ± 0.5 kg/m3
mass density (352.68 K, 6019 kPa): 997.3 ± 0.5 kg/m3
mass density (352.68 K, 7005 kPa): 997.8 ± 0.5 kg/m3
mass density (352.68 K, 8001 kPa): 998.4 ± 0.5 kg/m3
mass density (352.68 K, 8984 kPa): 999 ± 0.5 kg/m3
mass density (352.68 K, 9981 kPa): 999.5 ± 0.5 kg/m3
mass density (352.68 K, 11029 kPa): 1000.2 ± 0.5 kg/m3
mass density (352.68 K, 11980 kPa): 1000.7 ± 0.5 kg/m3
mass density (352.68 K, 13051 kPa): 1001.3 ± 0.5 kg/m3
mass density (352.68 K, 14000 kPa): 1001.8 ± 0.5 kg/m3
mass density (352.68 K, 14988 kPa): 1002.4 ± 0.5 kg/m3
mass density (352.68 K, 16018 kPa): 1002.9 ± 0.5 kg/m3
mass density (352.68 K, 16978 kPa): 1003.4 ± 0.6 kg/m3
mass density (352.68 K, 17977 kPa): 1004 ± 0.6 kg/m3
mass density (352.68 K, 19003 kPa): 1004.5 ± 0.6 kg/m3
mass density (352.68 K, 19990 kPa): 1005.1 ± 0.6 kg/m3
mass density (362.52 K, 1005 kPa): 986.7 ± 0.6 kg/m3
mass density (362.52 K, 2045 kPa): 987.3 ± 0.6 kg/m3
mass density (362.52 K, 2982 kPa): 987.8 ± 0.6 kg/m3
mass density (362.52 K, 4026 kPa): 988.4 ± 0.6 kg/m3
mass density (362.52 K, 5007 kPa): 988.9 ± 0.6 kg/m3
mass density (362.52 K, 6014 kPa): 989.5 ± 0.6 kg/m3
mass density (362.52 K, 7015 kPa): 990.2 ± 0.6 kg/m3
mass density (362.52 K, 7998 kPa): 990.8 ± 0.6 kg/m3
mass density (362.52 K, 9003 kPa): 991.3 ± 0.6 kg/m3
mass density (362.52 K, 9986 kPa): 991.9 ± 0.6 kg/m3
mass density (362.52 K, 10996 kPa): 992.5 ± 0.6 kg/m3
mass density (362.52 K, 12008 kPa): 993.1 ± 0.6 kg/m3
mass density (362.52 K, 13004 kPa): 993.7 ± 0.6 kg/m3
mass density (362.52 K, 13985 kPa): 994.2 ± 0.6 kg/m3
mass density (362.52 K, 15010 kPa): 994.8 ± 0.6 kg/m3
mass density (362.52 K, 15983 kPa): 995.4 ± 0.6 kg/m3
mass density (362.52 K, 17007 kPa): 995.7 ± 0.6 kg/m3
mass density (362.52 K, 17985 kPa): 996.3 ± 0.6 kg/m3
mass density (362.52 K, 18994 kPa): 996.9 ± 0.5 kg/m3
mass density (362.52 K, 19994 kPa): 997.4 ± 0.5 kg/m3
